Results taken from PMC11678824 (2024).

Experiments:
[1] = system: KRAS (DNA, G4) AGGGCGGTGTGGGAATAGGGAA; assay: fluorescent intercalator displacement (FID); conditions: 100 mM K+ (KCl) plus potassium phosphate; 20 mM potassium phosphate, pH 6.8; thiazole orange 3.5 µM displaced; DNA 1 µM
[2] = system: MYC (DNA, G4) TGAGGGTGGGTAGGGTGGGTAA; assay: fluorescent intercalator displacement (FID); conditions: 100 mM K+ (KCl) plus potassium phosphate; 20 mM potassium phosphate, pH 6.8; thiazole orange 3.5 µM displaced; DNA 1 µM
[3] = system: ds26 (DNA, duplex) CAATCGGATCGAATTCGATCCGATTG; assay: fluorescent intercalator displacement (FID); conditions: 100 mM K+ (KCl) plus potassium phosphate; 20 mM potassium phosphate, pH 6.8; thiazole orange 3.5 µM displaced; DNA 1 µM
[4] = system: ds26 (DNA, duplex) CAATCGGATCGAATTCGATCCGATTG; assay: fluorescence titration (ligand emission); conditions: 100 mM K+ (KCl) plus potassium phosphate, 20 mM potassium phosphate, pH 6.8, ligand 2 µM, apparent
[5] = system: G4 Tel (DNA, G4) AGGGTTAGGGTTAGGGTTAGGG; assay: fluorescence titration (ligand emission); conditions: 100 mM K+ (KCl) plus potassium phosphate, 20 mM potassium phosphate, pH 6.8, ligand 2 µM, apparent
[6] = system: G4 Tel (DNA, G4) AGGGTTAGGGTTAGGGTTAGGG; assay: fluorescent intercalator displacement (FID); conditions: 100 mM K+ (KCl) plus potassium phosphate; 20 mM potassium phosphate, pH 6.8; thiazole orange 3.5 µM displaced; DNA 1 µM
[7] = system: MYC (DNA, G4) TGAGGGTGGGTAGGGTGGGTAA; assay: fluorescence titration (ligand emission); conditions: 100 mM K+ (KCl) plus potassium phosphate; 20 mM potassium phosphate, pH 6.8; ligand 2 µM; apparent; Hill n = 3.85
[8] = system: KRAS (DNA, G4) AGGGCGGTGTGGGAATAGGGAA; assay: fluorescence titration (ligand emission); conditions: 100 mM K+ (KCl) plus potassium phosphate; 20 mM potassium phosphate, pH 6.8; ligand 2 µM; apparent; Hill n = 1.59
[9] = system: ds26 (DNA, duplex) CAATCGGATCGAATTCGATCCGATTG; assay: UV-Vis titration (Soret red shift, hypochromism); conditions: 100 mM K+ (KCl) plus potassium phosphate; 20 mM potassium phosphate, pH 6.8; ligand 2 µM; up to 2.5 equiv. DNA
[10] = system: KRAS (DNA, G4) AGGGCGGTGTGGGAATAGGGAA; assay: UV-Vis titration (Soret red shift, hypochromism); conditions: 100 mM K+ (KCl) plus potassium phosphate; 20 mM potassium phosphate, pH 6.8; ligand 2 µM; up to 2.5 equiv. DNA
[11] = system: G4 Tel (DNA, G4) AGGGTTAGGGTTAGGGTTAGGG; assay: UV-Vis titration (Soret red shift, hypochromism); conditions: 100 mM K+ (KCl) plus potassium phosphate; 20 mM potassium phosphate, pH 6.8; ligand 2 µM; up to 2.5 equiv. DNA
[12] = system: MYC (DNA, G4) TGAGGGTGGGTAGGGTGGGTAA; assay: UV-Vis titration (Soret red shift, hypochromism); conditions: 100 mM K+ (KCl) plus potassium phosphate; 20 mM potassium phosphate, pH 6.8; ligand 2 µM; up to 2.5 equiv. DNA

Row | DC50 [1] [nM] | DC50 [2] [nM] | DC50 [3] [nM] | KD ([4]; Hill n = 0.49) [nM] | KD ([5]; Hill n = 1.0) [nM] | DC50 [6] [nM] | KD ([4]; Hill n = 0.67) [nM] | KD ([5]; Hill n = 1.35) [nM] | KD [7] [nM] | KD [8] [nM] | binding [9] | binding [10] | binding [11] | binding [12] | SMILES
1 | 280 ± 10 | 180 ± 30 | 2000 ± 370 | 10 ± 7 | 630 ± 290 | 1120 ± 270 | – | – | – | – | – | – | – | – | C[n+]1ccc(-c2c3nc(c(-c4cc[n+](C)cc4)c4ccc([n-]4)c(-c4cc[n+](C)cc4)c4nc(c(-c5cc[n+](C)cc5)c5ccc2[n-]5)C=C4)C=C3)cc1.[Ag+2]
2 | 370 ± 10 | 200 ± 20 | 650 ± 40 | – | – | 340 ± 20 | 2690 ± 20 | 1300 ± 20 | 1320 ± 130 | 2720 ± 420 | – | – | – | – | C[n+]1ccc(-c2c3nc(c(-c4cc[n+](C)cc4)c4ccc([n-]4)c(-c4cc[n+](C)cc4)c4nc(c(-c5cc[n+](C)cc5)c5ccc2[n-]5)C=C4)C=C3)cc1.[Zn+2]
3 | – | – | – | – | – | – | – | – | – | – | yes | yes | yes | yes | C[n+]1ccc(-c2c3nc(c(-c4cc[n+](C)cc4)c4ccc([nH]4)c(-c4cc[n+](C)cc4)c4nc(c(-c5cc[n+](C)cc5)c5ccc2[nH]5)C=C4)C=C3)cc1
